From patent EP4603105A1, “PHARMACEUTICAL COMPOSITION CONTAINING CYCLIC COMPOUND HAVING SELECTIVE KRAS INHIBITORY EFFECT AGAINST HRAS AND NRAS” (CHUGAI SEIYAKU KABUSHIKI KAISHA, priority 2022, dated 2024)
*1 amine or outer side, *2 acyl side, *3 side chain or, on linkers, in order; H or OH if unused. Where a SMILES comes first, the peptide text is derived from it. Bridges are numbered along the chain shown (N, C = ends). [ ]: non-standard residue; d: D form. The star is where a group is joined. hPhe(3-Cl-4-CF3) = N[C@@H](CCc1ccc(C(F)(F)F)c(Cl)c1)C(=O)O; X8 = CCCN([C@@H](COCCC(C)C)C(=O)[*:2])[*:1]; NMeGly(cPent) = CN[C@H](C(=O)O)C1CCCC1; NMeD = CN[C@@H](CC(=O)O)C(=O)O; NMeL = CN[C@@H](CC(C)C)C(=O)O; Morpholide = C1CN(*)CCO1; NMeA = CN[C@@H](C)C(=O)O; Aze = O=C(O)[C@@H]1CCN1; Ac4c = NC1(C(=O)O)CCC1; Sar = CNCC(=O)O

Assays:
[1] = molecular target: GDP-bound KRAS wild-type protein (Homo sapiens, UniProt P01116); assay: Binding to KRAS by surface plasmon resonance (SPR), dissociation constant KD
Outline: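 Read-out is KD from 1:1 fitting of single-cycle kinetics sensorgrams, blank-cycle and reference-surface corrected. Proteins were GDP-loaded, biotinylated Avi-fusions freshly captured each cycle at roughly 100–300 RU. Runs were at 30°C in HBS pH 7.4 with MgCl2, GDP and 4% DMSO.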

[2] = molecular target: GDP-bound NRAS wild-type protein (Homo sapiens, UniProt P01111); assay: Binding to NRAS by surface plasmon resonance (SPR), KD and KD ratio to KRAS
Outline: (§1)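 Recombinant RAS proteins bearing a biotinylated Avi tag and loaded with GDP served as the captured ligand, recaptured fresh every cycle. Binding responses were referenced to an uncoated surface and a buffer-only blank cycle. Dissociation constants were obtained by 1:1 model fitting at 30°C.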

HRAS wild-type protein = HRAS wild-type protein (Homo sapiens, UniProt P01112); assay: Binding to HRAS by surface plasmon resonance (SPR), KD and KD ratio to KRAS
Outline: as §1

[3] = tested on: human lung cancer strain NCI-H441; format: cell-based
Outline: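 Signal came from […] measured per well once the reagent was added. Beforehand, cells were cultured at 37°C and 5% carbon dioxide on a compound series serially diluted in dimethyl sulfoxide.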

[4] = Single Cycle Kinetics, 1:1 binding model
[5] = ratio of the KD value with respect to GDP-bound NRAS wild-type protein to the KD value with respect to KRAS
[6] = ratio of the KD value with respect to HRAS wild-type protein to the KD value with respect to KRAS
[7] = ratio of KD for GDP-bound NRAS wild-type protein to KD for KRAS
[8] = ratio of KD for HRAS wild-type protein to KD for KRAS

Sequence of GDP-bound NRAS wild-type protein (P01111 whole entry): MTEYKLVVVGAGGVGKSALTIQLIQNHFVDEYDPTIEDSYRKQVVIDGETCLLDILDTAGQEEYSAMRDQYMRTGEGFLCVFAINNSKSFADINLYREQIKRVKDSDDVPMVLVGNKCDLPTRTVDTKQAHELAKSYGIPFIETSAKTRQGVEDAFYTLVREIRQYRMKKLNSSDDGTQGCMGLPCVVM
Sequence of HRAS wild-type protein (P01112 whole entry): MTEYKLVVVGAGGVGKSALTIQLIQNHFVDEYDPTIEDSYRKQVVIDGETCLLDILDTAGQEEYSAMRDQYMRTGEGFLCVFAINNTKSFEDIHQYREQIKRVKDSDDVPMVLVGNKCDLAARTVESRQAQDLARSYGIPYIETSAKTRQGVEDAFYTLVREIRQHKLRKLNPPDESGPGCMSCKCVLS
Sequence of GDP-bound KRAS wild-type protein (P01116 1-188 isoform P01116-2): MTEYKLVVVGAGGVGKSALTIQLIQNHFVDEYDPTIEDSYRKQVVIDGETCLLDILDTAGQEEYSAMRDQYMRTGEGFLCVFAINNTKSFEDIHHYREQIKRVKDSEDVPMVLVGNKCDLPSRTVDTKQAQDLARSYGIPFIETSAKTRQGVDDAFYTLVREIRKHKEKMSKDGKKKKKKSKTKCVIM

Row | Kd [1, 4] | IC50 [3] | Kd ([1]; Single Cycle Kinetics) | Kd ([1]; 1:1 binding model) | SMILES | NRAS /KRAS [2, 5] | HRAS /KRAS (HRAS wild-type protein; [6]) | NRAS /KRAS [2, 7] | HRAS /KRAS (HRAS wild-type protein; [8]) | NRAS /KRAS ([2]; ratio of KD value for GDP-bound NRAS wild-type protein to KD value for KRAS (SPR)) | HRAS /KRAS (HRAS wild-type protein; ratio of KD value for HRAS wild-type protein to KD value for KRAS (SPR))
1 | 2.4 nM | 46.3 nM | – | – | CC[C@H](C)[C@@H]1NC(=O)[C@H](CC(C)C)N(C)C(=O)C[C@@H](C(=O)N(C)C)N(C)C(=O)[C@H](C2CCCC2)N(C)C(=O)C2(CCCC2)NC(=O)[C@@H]2CCCN2C(=O)[C@H](CCc2ccc(C(F)(F)F)c(Cl)c2)NC(=O)CN(C)C(=O)[C@H](Cc2ccc(C(F)(F)F)cc2)N2CC=CCOC[C@H](C2=O)N(C)C(=O)CN(C)C1=O [PP0628] | C (A compound having a KD ratio of 0.1 or more and less than 3 is denoted as C) | C (A compound having a KD ratio of 0.1 or more and less than 3 is denoted as C) | – | – | – | –
2 | – | 114 nM | 1.1 nM | – | CC[C@H](C)[C@@H]1NC(=O)[C@H](CC(C)C)N(C)C(=O)C[C@@H](C(=O)N2CCOCC2)N(C)C(=O)[C@H](C2CCCC2)N(C)C(=O)C2(CCC2)NC(=O)[C@@H]2C[C@@H](OCC3CC3)CN2C(=O)[C@H](CCc2cc(F)c(C(F)(F)F)c(F)c2)NC(=O)CN(C)C(=O)[C@H](Cc2ccc(C(F)(F)F)cc2)N2CCCC[C@@H](C2=O)N(C)C(=O)CN(C)C1=O [PP1014] | – | – | C (A compound having a KD ratio of 0.1 or more and less than 3 is denoted as C) | C (A compound having a KD ratio of 0.1 or more and less than 3 is denoted as C) | – | –
3 | 1 nM | 149 nM | – | – | CCCN1C(=O)[C@@H]2CCN2C(=O)[C@H](C)N(C)C(=O)[C@H]([C@@H](C)CC)NC(=O)[C@H](CC(C)C)N(C)C(=O)C[C@@H](C(=O)N2CCOCC2)N(C)C(=O)[C@H](C2CCCC2)N(C)C(=O)C2(CCC2)NC(=O)[C@@H]2CCCN2C(=O)[C@H](CCc2ccc(C(F)(F)F)c(Cl)c2)NC(=O)CN(C)C(=O)[C@@H]1COCCC(C)C [PP1819] ([NMeL]I[NMeA][Aze][X8][Sar][hPhe(3-Cl-4-CF3)]P[Ac4c][NMeGly(cPent)][NMeD]-Morpholide; lactam N-11) | – | – | – | – | C (A compound having a KD ratio of 0.1 or more and less than 3 is denoted as C) | C (A compound having a KD ratio of 0.1 or more and less than 3 is denoted as C)
4 | – | 7.3 nM | – | 0.083 nM | CCO[C@@H]1C[C@H]2C(=O)NC3(CCC3)C(=O)N(C)[C@@H](C3CCCC3)C(=O)N(C)[C@H](C(=O)N(C)CC)CC(=O)N(C)[C@@H](CC(C)C)C(=O)N[C@@H]([C@@H](C)CC)C(=O)N(C)CC(=O)N(C)[C@H]3C/C=C\CCN(C3=O)[C@@H](Cc3ccc(C(F)(F)F)cc3)C(=O)N(C)CC(=O)N[C@@H](CCc3ccc(C(F)(F)F)c(Cl)c3)C(=O)N2C1 [PP2847] | – | – | A (a compound having 10 or more and less than 20 is denoted as A) | A (a compound having 10 or more and less than 20 is denoted as A) | – | –

Continued, compound first:

Row | SMILES | Kd [1, 4] | IC50 [3] | Kd ([1]; Single Cycle Kinetics) | Kd ([1]; 1:1 binding model) | NRAS /KRAS [2, 5] | HRAS /KRAS (HRAS wild-type protein; [6]) | NRAS /KRAS [2, 7] | HRAS /KRAS (HRAS wild-type protein; [8]) | NRAS /KRAS ([2]; ratio of KD value for GDP-bound NRAS wild-type protein to KD value for KRAS (SPR)) | HRAS /KRAS (HRAS wild-type protein; ratio of KD value for HRAS wild-type protein to KD value for KRAS (SPR))
5 | CCC[C@H]1C(=O)N[C@@H]([C@@H](C)CC)C(=O)N(C)CC(=O)N(C)[C@H]2C/C=C\CCN(C2=O)[C@@H](Cc2ccc(C)cc2)C(=O)N(C)CC(=O)N[C@@H](CCc2ccc(C(F)(F)F)c(OC)c2)C(=O)N2CC3(CC3)C[C@H]2C(=O)NC2(CC(C)(C)C2)C(=O)N(C)[C@@H](CC(C)(C)C)C(=O)N(C)[C@H](C(=O)N(C)C)CC(=O)N1C [PP3009] | – | 7.7 nM | – | 0.073 nM | – | – | A (a compound having 10 or more and less than 20 is denoted as A) | A (a compound having 10 or more and less than 20 is denoted as A) | – | –
6 | CCC[C@H]1C(=O)N[C@@H]([C@@H](C)CC)C(=O)N(CCC)CC(=O)N(C)[C@H]2C/C=C\CCN(C2=O)[C@@H](Cc2ccc(C)cc2)C(=O)N(C)CC(=O)N[C@@H](CCc2ccc(C(F)(F)F)c(OC)c2)C(=O)N2C[C@H](OCC)C[C@H]2C(=O)NC2(CC(C)(C)C2)C(=O)N(C)[C@@H](C2CCCC2)C(=O)N(C)[C@H](C(=O)N(C)C)CC(=O)N1C [PP2054] | 0.41 nM | 8.5 nM | – | – | A (a compound having 10 or more and less than 20 is denoted as A) | A (a compound having 10 or more and less than 20 is denoted as A) | – | – | – | –
7 | CCO[C@@H]1C[C@H]2C(=O)NC3(CC(C)(C)C3)C(=O)N(C)[C@@H](C3CCCC3)C(=O)N(C)[C@H](C(=O)N(C)CC)CC(=O)N(C)[C@@H](CC(C)C)C(=O)N[C@@H]([C@@H](C)CC)C(=O)N(C)CC(=O)N(C)[C@H]3C/C=C\CCN(C3=O)[C@@H](Cc3ccc(C(F)F)cc3)C(=O)N(C)CC(=O)N[C@@H](CCc3ccc(C4CC4)c(C)c3)C(=O)N2C1 [PP3156] | – | 63.8 nM | – | 2 nM | – | – | A (a compound having 10 or more and less than 20 is denoted as A) | A (a compound having 10 or more and less than 20 is denoted as A) | – | –
